Earlier results, collected in patent US6562605B1, “Extraction of water soluble biomaterials from fluids using a carbon dioxide/surfactant mixture” (Genencor International, Inc., priority 1995, dated 2003).
Like-named read-outs stand apart in the source and are kept apart here.

[1] = to 388 bar, 50° C. printed at first prior art line

| Solubility in carbon dioxide (at 377 bar) | Compound | Solubility in carbon dioxide [1] | other results |
| --- | --- | --- | --- |
|  | CCCCCCS(=O)(=O)[O-].[Na+] [Alkyl sulfonate (C6, sodium salt, Fluka)] | insoluble to 388 bar (50° C.) |  |
|  | CCCCCCCCS(=O)(=O)[O-].[Na+] [Alkyl sulfonate (Niacet, NAS 08)] |  | Solubility in carbon dioxide (to 585 bar): insoluble to 585 bar |
|  | CCCCCCCCCCCCCC[N+](C)(C)C.[Br-] [Tetradecyl trimethyl ammonium bromide] | insoluble to 388 bar |  |
| slightly soluble at 377 bar | Sorbitan monostearate [Sorbitan monostearate (Fluka, Span 60)] |  |  |
| slightly soluble at 377 bar | Sorbitan trioleate [Sorbitan trioleate (Fluka, Span 80)] |  |  |
